{
  "source": "patent US6465194B2",
  "about": "“Monoclonal antibodies to 4,4′-dinitrocarbanilide and a method for analyzing for the drug nicarbazin” (The United States of America as represented by the …, priority 1999, dated 2002)",
  "origin": "cited, not measured here",
  "key": {"[1]": {"details": "chickens; Porter and Gilfilan, 1955"}, "[2]": {"test_system": "Eimeria tenella", "details": "Cuckler et al., 1955"}},
  "data": [
    {"smiles": "O=C(Nc1ccc([N+](=O)[O-])cc1)Nc1ccc([N+](=O)[O-])cc1", "note": "[DNC, 4,4′-dinitrocarbanilide]", "values": [
      {"measurement": "excretion rate", "setting": "[1]", "result": "more slowly than HDP"}
    ]},
    {"smiles": "Cc1cc(C)nc(O)n1.O=C(Nc1ccc([N+](=O)[O-])cc1)Nc1ccc([N+](=O)[O-])cc1", "note": "[DNC-HDP]", "values": [
      {"measurement": "potency in the control of Eimeria tenella relative to DNC by itself", "setting": "[2]; complex versus DNC alone", "result": "ten"}
    ]},
    {"smiles": "Cc1cc(C)nc(O)n1", "note": "[HDP, 2-hydroxy-4,6-dimethylpyrimidine]", "values": [
      {"measurement": "anticoccidial activity", "setting": "[2]; used alone", "result": "no anticoccidial activity"}
    ]}
  ]
}
